ChEMBL document CHEMBL1201862, “PubChem BioAssay data set” (2004)
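Interpolation was linear, between the two tested concentrations surrounding the appropriate level; five concentrations were tested over 48 hours in 96-well plates. GI50 marks 50% less growth.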 Calls of active or inactive are those of the source. No stated cut-off is given here; in the data, active = GI50 up to about 1.1 µM and inactive = higher.

Assays:
Assay in all cases: NCI anticancer screen, dose series, 48 h
[1] = system: BT-549
[2] = system: CCRF-CEM
[3] = system: EKVX
[4] = system: HOP-62
[5] = system: HOP-92
[6] = system: HT-29
[7] = system: Hs-578T
[8] = system: LOX IMVI
[9] = system: M14
[10] = system: NCI-H226
[11] = system: NCI-H522
[12] = system: OVCAR-3
[13] = system: OVCAR-5
[14] = system: RPMI-8226
[15] = system: SF-268
[16] = system: SK-OV-3
[17] = system: SN12C
[18] = system: SR
[19] = system: U-251
[20] = system: UACC-257

Measured: GI50

O=C(O)c1cc2ccc3ccccc3c2oc1=O
inactive: [1] > 100 µM | [2] > 100 µM | [3] 31.3 µM | [4] > 100 µM | [5] > 100 µM | [6] > 100 µM | [7] > 100 µM | [8] > 100 µM | [9] > 100 µM | [10] > 100 µM | [11] > 100 µM | [12] > 100 µM | [13] > 100 µM | [14] > 100 µM | [15] > 100 µM | [16] > 100 µM | [17] > 100 µM | [18] > 100 µM | [19] > 100 µM | [20] > 100 µM

COC(=O)c1c(O)ccc2c1c1c(n2C)C(=O)c2ccccc2C1=O
inactive: [1] 10.4 µM | [2] 6.37 µM | [3] 42 µM | [4] 14.8 µM | [5] 2.28 µM | [6] 78.2 µM | [7] 6.93 µM | [8] 16.7 µM | [9] 49.2 µM | [10] 9.02 µM | [11] 18.4 µM | [12] 35.3 µM | [13] 85.3 µM | [14] 4.78 µM | [15] 13.8 µM | [16] 6.19 µM | [17] 11.9 µM | [18] 16.2 µM | [19] 15.7 µM | [20] > 100 µM

CC(C)NC(=O)OCc1c(COC(=O)NC(C)C)c(-c2cc[n+](COC(=O)C3CC3)cc2)n2c1CCC2
inactive: [1] > 100 µM | [2] > 100 µM | [3] > 100 µM | [4] > 100 µM | [5] > 100 µM | [6] > 100 µM | [7] > 100 µM | [8] > 100 µM | [9] > 100 µM | [10] > 100 µM | [11] > 100 µM | [12] > 100 µM | [13] > 100 µM | [14] > 100 µM | [15] > 100 µM | [16] > 100 µM | [17] > 100 µM | [18] > 100 µM | [19] > 100 µM | [20] > 100 µM

CC(C)C1N(C)c2ccc(Cl)cc2[C@H]2c3ccccc3CCN12 (some centres undefined)
inactive: [1] > 100 µM | [2] 97.9 µM | [3] 28 µM | [4] > 100 µM | [5] 24.9 µM | [6] 22.1 µM | [7] 25.8 µM | [8] 31.6 µM | [9] 55.1 µM | [10] 14.3 µM | [11] 21.9 µM | [12] 27.2 µM | [13] 38.3 µM | [14] 18.7 µM | [15] > 100 µM | [16] > 100 µM | [17] 45.2 µM | [18] 29.9 µM | [19] 61.5 µM | [20] 30.4 µM

COC(=O)C1=C(C(=O)OC)C(C(=O)c2ccc(Br)cc2)N2N=C(c3ccc(Cl)cc3)C=CC12 (centres undefined)
inactive: [1] 34.8 µM | [2] > 100 µM | [3] > 100 µM | [4] > 100 µM | [5] 72.1 µM | [7] > 100 µM | [8] > 100 µM | [9] > 100 µM | [10] > 100 µM | [11] 26.2 µM | [12] > 100 µM | [13] > 100 µM | [14] > 100 µM | [15] 69.7 µM | [16] > 100 µM | [17] > 100 µM | [18] 40.6 µM | [19] > 100 µM | [20] > 100 µM

CCC(C(=O)C(=O)C(CC)P1(=O)OC(C)(C)CN1C(C)(C)C)P1(=O)OC(C)(C)CN1C(C)(C)C (centres undefined)
inactive: [1] > 100 µM | [2] > 100 µM | [3] > 100 µM | [4] > 100 µM | [5] 45.9 µM | [6] > 100 µM | [7] > 100 µM | [8] > 100 µM | [9] > 100 µM | [10] > 100 µM | [11] > 100 µM | [12] > 100 µM | [14] 43.6 µM | [15] > 100 µM | [16] > 100 µM | [17] > 100 µM | [18] 60.4 µM | [19] > 100 µM | [20] > 100 µM

O=C(O)[C@@H]1CCCN1 [PROLINE]
inactive: [1] > 100 µM | [3] > 100 µM | [4] > 100 µM | [5] > 100 µM | [6] > 100 µM | [7] > 100 µM | [8] > 100 µM | [9] > 100 µM | [10] > 100 µM | [11] > 100 µM | [12] > 100 µM | [13] > 100 µM | [14] > 100 µM | [15] > 100 µM | [16] > 100 µM | [17] > 100 µM | [18] > 100 µM | [19] > 100 µM | [20] > 100 µM

NC1=Nc2cc(Cl)ccc2Sc2nc3ccccc3n21
inactive: [1] > 100 µM | [2] 1.22 µM | [3] 20.3 µM | [4] > 86.3 µM | [5] 16.1 µM | [6] 4.53 µM | [7] > 72.3 µM | [8] 4.4 µM | [9] 2.52 µM | [10] 2.86 µM | [11] 3.92 µM | [12] > 100 µM | [14] 5.73 µM | [15] > 61.5 µM | [16] > 100 µM | [17] > 100 µM | [18] 2.64 µM | [19] 4.48 µM | [20] 5.83 µM

Cc1cccc2c1Oc1ccccc1C2NC(=O)c1ccc([N+](=O)[O-])cc1 (centres undefined)
inactive: [1] 56 µM | [2] > 100 µM | [3] > 100 µM | [4] 28.8 µM | [5] > 100 µM | [6] > 100 µM | [7] 29.4 µM | [8] > 100 µM | [9] > 100 µM | [10] 15.6 µM | [11] > 100 µM | [12] 99.3 µM | [13] > 100 µM | [14] > 100 µM | [15] 95.3 µM | [17] 29.3 µM | [18] > 100 µM | [19] 57.8 µM | [20] > 100 µM

COc1cc(S(=O)(=O)Nc2ccc(-c3csc(N4C(=O)CSC4c4ccccc4)n3)cc2)ccc1Cl (centres undefined)
inactive: [1] 75.5 µM | [2] 34.2 µM | [3] 20.6 µM | [4] 81.8 µM | [5] 20.6 µM | [6] 54.2 µM | [7] 55.6 µM | [8] 30.5 µM | [9] 43.8 µM | [10] 94.4 µM | [11] 34.4 µM | [12] > 100 µM | [13] > 100 µM | [14] 24.4 µM | [15] 33.7 µM | [16] > 100 µM | [17] > 100 µM | [18] 32.3 µM | [20] 40.9 µM
